Data from ChEMBL document CHEMBL4765326, “Anchoring BODIPY photosensitizers enable pan-microbial photoinactivation” (Eur J Med Chem, 2020).
Activity calls are given as the source filed them. The rule behind the calls is not given here.

Tests used:
[1] = Induction of singlet oxygen generation in DPBF solution assessed as singlet oxygen quantum yield irradiated with 80 mW/cm2 light by DPBF-based assay; format: functional
[2] = Octanol-water partition coefficient, logP of compound incubated for 24 hrs under shaking condition; format: physicochemical
Staphylococcus aureus [3] = experiment: Photodynamic antibacterial activity against Staphylococcus aureus assessed as bacterial eradication preincubated for 20 mins in dark condition followed by 18 J/cm2 LED light irradiation and measured after 18 hrs by broth microdilution method; format: functional; conditions: light or radiation study, 18.33 h, time 1100 min
Escherichia coli [4] = experiment: Photodynamic antibacterial activity against Escherichia coli assessed as bacterial eradication preincubated for 20 mins in dark condition followed by 18 J/cm2 LED light irradiation and measured after 18 hrs by broth microdilution method; format: functional; conditions: light or radiation study, 18.33 h, time 1100 min
Candida albicans [5] = experiment: Photodynamic antifungal activity against Candida albicans assessed as fungal eradication preincubated for 20 mins in dark condition followed by 18 J/cm2 LED light irradiation and measured after 18 hrs by broth microdilution method; format: functional; conditions: light or radiation study, 18.33 h, time 1100 min
Staphylococcus aureus [6] = experiment: Photodynamic antibacterial activity against methicillin resistant Staphylococcus aureus assessed as bacterial eradication preincubated for 20 mins in dark condition followed by 18 J/cm2 LED light irradiation and measured after 18 hrs by broth microdilution method; format: functional; conditions: light or radiation study, 18.33 h, time 1100 min
Staphylococcus aureus [7] = experiment: Antibacterial activity against Staphylococcus aureus up to 80 uM by broth microdilution method; format: functional, organism-based; conditions: dose microM <=80
Escherichia coli [8] = experiment: Antibacterial activity against Escherichia coli up to 80 uM by broth microdilution method; format: functional, organism-based; conditions: dose microM <=80
Candida albicans [9] = experiment: Antifungal activity against Candida albicans up to 80 uM by broth microdilution method; format: functional, organism-based; conditions: dose microM <=80
Staphylococcus aureus [10] = experiment: Antibacterial activity against methicillin resistant Staphylococcus aureus up to 80 uM by broth microdilution method; format: functional, organism-based; conditions: dose microM <=80
Cell membrane [11] = experiment: Disruption of cell membrane integrity in Staphylococcus aureus at 2 uM irradiated with 6J/cm2 light followed by compound exposure for 10 mins by FL-4L/propidium iodide Live/dead staining based laser confocal microscopic analysis
Staphylococcus aureus [12] = experiment: Binding affinity to Staphylococcus aureus cell wall assessed as bound fraction at 25 uM measured after 3 to 10 mins; conditions: time 3-10 min
Escherichia coli [13] = experiment: Binding affinity to Escherichia coli cell wall assessed as bound fraction at 25 uM measured after 3 to 10 mins; conditions: time 3-10 min
Candida albicans [14] = experiment: Binding affinity to Candida albicans cell wall assessed as bound fraction at 25 uM measured after 3 to 10 mins; conditions: time 3-10 min
Staphylococcus aureus [15] = experiment: Binding affinity to Staphylococcus aureus cell wall at 50 uM preincubated with 12.5 to 50 mM Ca2+ for 30 mins followed by incubation with compound for 30 mins
Escherichia coli [16] = experiment: Binding affinity to Escherichia coli cell wall at 50 uM preincubated with 12.5 to 50 mM Ca2+ for 30 mins followed by incubation with compound for 30 mins
Candida albicans [17] = experiment: Binding affinity to Candida albicans cell wall at 50 uM preincubated with 12.5 to 50 mM Ca2+ for 30 mins followed by incubation with compound for 30 mins
Cell membrane [18] = experiment: Disruption of cell membrane integrity in Escherichia coli at 2 uM irradiated with 6J/cm2 light followed by compound exposure for 10 mins by FL-4L/propidium iodide Live/dead staining based laser confocal microscopic analysis
Candida albicans [19] = experiment: Disruption of cell membrane integrity in Candida albicans at 2 uM irradiated with 6J/cm2 light followed by compound exposure for 10 mins by FL-4L/propidium iodide Live/dead staining based laser confocal microscopic analysis
Cell membrane [20] = experiment: Binding affinity to Staphylococcus aureus cell membrane assessed as reduction in zeta potential by zetasizer-based analysis; format: subcellular
Cell membrane [21] = experiment: Binding affinity to Escherichia coli cell membrane assessed as reduction in zeta potential by zetasizer-based analysis; format: subcellular

CC1=C(I)C(C)=[N+]2C1=Cc1c(C)c(I)c(C)n1[B-]2(OCC[N+](C)(C)C)OCC[N+](C)(C)C
Activity [1]: 0.58 | logP at 24 h [2]: -1.21 | MIC (Staphylococcus aureus [3]): 30 µM | MIC (Escherichia coli [4]): 40 µM | MIC (Candida albicans [5]): 40 µM | MIC (Staphylococcus aureus [6]): 20 µM | Activity (Staphylococcus aureus [7]): inactive | Activity (Escherichia coli [8]): inactive | Activity (Candida albicans [9]): inactive | Activity (Staphylococcus aureus [10]): inactive

CC1=C(I)C(C)=[N+]2C1=Cc1c(C)c(I)c(C)n1[B-]2(OCCCc1cc[n+](C)cc1)OCCCc1cc[n+](C)cc1
Activity [1]: 0.74 | logP at 24 h [2]: -0.91 | MIC (Staphylococcus aureus [3]): 1.25 µM | MIC (Escherichia coli [4]): 1.25 µM | MIC (Candida albicans [5]): 5 µM | MIC (Staphylococcus aureus [6]): 1.25 µM | Activity (Staphylococcus aureus [7]): inactive | Activity (Escherichia coli [8]): inactive | Activity (Candida albicans [9]): inactive | Activity (Staphylococcus aureus [10]): inactive

CC1=C(I)C(C)=[N+]2C1=Cc1c(C)c(I)c(C)n1[B-]2(C#Cc1cc[n+](C)cc1)C#Cc1cc[n+](C)cc1
Activity [1]: 0.54 | logP at 24 h [2]: -0.63 | MIC (Staphylococcus aureus [3]): 1.25 µM | MIC (Escherichia coli [4]): 1.25 µM | MIC (Candida albicans [5]): 0.625 µM | MIC (Staphylococcus aureus [6]): 0.625 µM | Activity (Staphylococcus aureus [7]): inactive | Activity (Escherichia coli [8]): inactive | Activity (Candida albicans [9]): inactive | Activity (Staphylococcus aureus [10]): inactive

CC[N+](C)(CC)CCCO[B-]1(OCCC[N+](C)(CC)CC)n2c(C)c(I)c(C)c2C=C2C(C)=C(I)C(C)=[N+]21
Activity [1]: 0.75 | logP at 24 h [2]: -0.93 | MIC (Staphylococcus aureus [3]): 20 µM | MIC (Escherichia coli [4]): 40 µM | MIC (Candida albicans [5]): 40 µM | MIC (Staphylococcus aureus [6]): 20 µM | Activity (Staphylococcus aureus [7]): inactive | Activity (Escherichia coli [8]): inactive | Activity (Candida albicans [9]): inactive | Activity (Staphylococcus aureus [10]): inactive

CC[N+](C)(CC)CCO[B-]1(OCC[N+](C)(CC)CC)n2c(C)c(I)c(C)c2C=C2C(C)=C(I)C(C)=[N+]21
Activity [1]: 0.65 | logP at 24 h [2]: -1.36 | MIC (Staphylococcus aureus [3]): 30 µM | MIC (Escherichia coli [4]): 40 µM | MIC (Candida albicans [5]): 40 µM | MIC (Staphylococcus aureus [6]): 40 µM | Activity (Staphylococcus aureus [7]): inactive | Activity (Escherichia coli [8]): inactive | Activity (Candida albicans [9]): inactive | Activity (Staphylococcus aureus [10]): inactive

CC1=C(I)C(C)=[N+]2C1=Cc1c(C)c(I)c(C)n1[B-]2(Oc1cc[n+](C)cc1)Oc1cc[n+](C)cc1
Activity [1]: 0.61 | logP at 24 h [2]: -0.93 | MIC (Staphylococcus aureus [3]): 25 µM | MIC (Escherichia coli [4]): 25 µM | MIC (Candida albicans [5]): 40 µM | MIC (Staphylococcus aureus [6]): 40 µM | Activity (Staphylococcus aureus [7]): inactive | Activity (Escherichia coli [8]): inactive | Activity (Candida albicans [9]): inactive | Activity (Staphylococcus aureus [10]): inactive

CC1=C(I)C(C)=[N+]2C1=Cc1c(C)c(I)c(C)n1[B-]2(OCCc1cc[n+](C)cc1)OCCc1cc[n+](C)cc1
Activity (Cell membrane [11]): inactive | Activity [1]: 0.74 | logP at 24 h [2]: -1.14 | MIC (Staphylococcus aureus [3]): 20 µM | MIC (Escherichia coli [4]): 0.625 µM | MIC (Candida albicans [5]): 40 µM | MIC (Staphylococcus aureus [6]): 20 µM | Activity (Staphylococcus aureus [12]): 55% | Activity (Escherichia coli [13]): 51.9% | Activity (Candida albicans [14]): 34% | Activity (Staphylococcus aureus [15]): inactive | Activity (Escherichia coli [16]): inactive | Activity (Candida albicans [17]): inactive | Activity (Cell membrane [18]): Active | Activity (Candida albicans [19]): inactive | Activity (Staphylococcus aureus [7]): inactive | Activity (Escherichia coli [8]): inactive | Activity (Candida albicans [9]): inactive | Activity (Staphylococcus aureus [10]): inactive | Activity (Cell membrane [20]): Active | Activity (Cell membrane [21]): Active
